# According to patent publication US7981867B2, “Use of des-aspartate-angiotensin I” (priority 2005, dated 2011):
# Values joined by “and” are separate entries in the source; they are usually repeats but may differ in a detail not shown here. Equal values may be shown once. Read-outs that look alike come from different tables or passages of the source.
# How the values were obtained:
# [1] = test system: Influenza A/Aichi/2/68 virus; assay type: in vivo, BALB/c mice
# [2] = test system: Influenza A/Aichi/2/68 virus; assay type: in vivo, BALB/c mice; settings: for Percentage Weight Change of Individual Mouse: i.p. 60 nmole/kg for 7 days from weight loss 15% or greater, mice 1-7 = c8-c14
# [3] = test system: GLUT4; assay: Insulin-induced translocation of GLUT4 to plasma membrane in skeletal muscle of diabetic GK rats; assay type: in vivo; settings: oral treatment for 9 weeks; insulin 0.5 U/kg i.p., 30 minutes; Western blot
# Description: Upper panel: Representative Western blot of plasma membrane GLUT4 in skeletal muscle of des-aspartate-angiotensin I treated and non treated diabetic GK rats. Lower panel: Relative (to the non insulin stimulated samples) levels of plasma membrane GLUT4 in skeletal muscle of des-aspartate-angiotensin I treated and control diabetic GK rats.
# The diabetic GK rats described in EXAMPLE 9 were similarly treated for another week. At 9 weeks of treatment, animals were fasted overnight and half the animals in each group were intraperitoneally administered with PBS and the other half with insulin (0.5 U/kg). After 30 minutes, the animals were sacrificed by cervical dislocation. Hind limb skeletal muscles were rapidly excised and frozen in liquid nitrogen. Muscle samples were stored at −80° C. until used. The hindlimb muscles were subsequently thawed over an ice pack and plasma membranes were prepared as described by Dombrowaski et al. Thirty μg of protein from the 25% interface of the discontinued sucrose gradient was subjected to SDS-PAGE, transferred to PVDF sheets and incubated with anti-GLUT4 polyclonal primary antibody (1:800), washed and followed by incubation with anti-goat secondary antibody (1:10,000). The bands were detected at 49 kDa. […]
# [4] = test system: serum insulin; assay: Serum insulin level of diabetic GK rats (ELISA); assay type: in vivo; settings: 600 nmole/kg oral, 8 weeks, serum at 30 min of the oral glucose tolerance test, vs control
# Experimental: Serum from 8 weeks treated animals (as described in EXAMPLE 9) were assayed for insulin concentration by the “Ultra Senstive Rat Insulin ELISA kit” (Crystal Chem. Inc., IL, USA). The values were from serum taken at 30 min of the oral glucose tolerance test.
# The diabetic GK rats described in EXAMPLE 9 were similarly treated for another week. At 9 weeks of treatment, animals were fasted overnight and half the animals in each group were intraperitoneally administered with PBS and the other half with insulin (0.5 U/kg). After 30 minutes, the animals were sacrificed by cervical dislocation. Hind limb skeletal muscles were rapidly excised and frozen in liquid nitrogen. Muscle samples were stored at −80° C. until used. The hindlimb muscles were subsequently thawed over an ice pack and plasma membranes were prepared as described by Dombrowaski et al. Thirty μg of protein from the 25% interface of the discontinued sucrose gradient was subjected to SDS-PAGE, transferred to PVDF sheets and incubated with anti-GLUT4 polyclonal primary antibody (1:800), washed and followed by incubation with anti-goat secondary antibody (1:10,000). The bands were detected at 49 kDa. […] As insulin resistance is the hallmark of diabetes, it is concluded that the des-aspartate-angiotensin I exerts marked hypoglycaemic action in diabetic GK rats by overcoming insulin resistance in these animals.
# [5] = oral 1200 nmole/kg given as a single dose on Day 2 (n = 9), post infection day 11
substance,measurement,setting,value
"des-aspartate-angiotensin I (RVYIHPFHL; Angiotensin-1; UniProt P01019 26-34, looked up, fragment) [endogenous angiotensin peptide derived from angiotensin I by a specific aminopeptidase; purchased from Bachem]",Average Percentage Weight Change,"[1]; oral 1200 nmole/kg given as a single dose on Day 2 (n = 9), post infection day 1",103.5 ± 0.5%
same,Average Percentage Weight Change,"[1]; oral 1200 nmole/kg given as a single dose on Day 2 (n = 9), post infection day 2",96.8 ± 0.6%
same,Average Percentage Weight Change,"[1]; oral 1200 nmole/kg given as a single dose on Day 2 (n = 9), post infection day 3",95.1 ± 0.8 %
same,Average Percentage Weight Change,"[1]; oral 1200 nmole/kg given as a single dose on Day 2 (n = 9), post infection day 4",96.7 ± 1.2 %
same,Average Percentage Weight Change,"[1]; oral 1200 nmole/kg given as a single dose on Day 2 (n = 9), post infection day 5",96.3 ± 2.1 %
same,Average Percentage Weight Change,"[1]; oral 1200 nmole/kg given as a single dose on Day 2 (n = 9), post infection day 6",95.7 ± 3.1 %
same,Average Percentage Weight Change,"[1]; oral 1200 nmole/kg given as a single dose on Day 2 (n = 9), post infection day 7",97.8 ± 4.0 %
same,Average Percentage Weight Change,"[1]; oral 1200 nmole/kg given as a single dose on Day 2 (n = 9), post infection day 8",98.3 ± 4.3%
same,Average Percentage Weight Change,"[1]; oral 1200 nmole/kg given as a single dose on Day 2 (n = 9), post infection day 9",101.1 ± 4.7%
same,Average Percentage Weight Change,"[1]; oral 1200 nmole/kg given as a single dose on Day 2 (n = 9), post infection day 10",101.1 ± 4.8%
same,Average Percentage Weight Change,[1]; [5],105.9 ± 1.3%
same,number of animals that died on the day of recording,[1]; [5],1
same,Average Percentage Weight Change,"[1]; oral 1200 nmole/kg given as a single dose on Day 2 (n = 9), post infection day 12",106.1 ± 1.3%
same,Average Percentage Weight Change,"[1]; oral 1200 nmole/kg given as a single dose on Day 2 (n = 9), post infection day 13",108.1 ± 1.2%
same,Average Percentage Weight Change,"[1]; oral 1200 nmole/kg given as a single dose on Day 2 (n = 9), post infection day 14",107.2 ± 1.3%
same,Average Percentage Weight Change,"[1]; oral 1200 nmole/kg given as a single dose on Day 2 (n = 9), post infection day 15",109.4 ± 1.2%
same,Average Percentage Weight Change,"[1]; oral 1200 nmole/kg given as a single dose on Day 2 (n = 9), post infection day 16",108.4 ± 1.5%
same,"antiviral activity (attenuation of weight loss, survival)",[1]; oral single dose of 1200 nmole/kg given on Day 2,Effective antiviral activity
same,Percentage Weight Change of Individual Mouse,[2]; post infection day 2,96.3% and 97.1% and 96.6% and 97.3% and 95.8% and 99.3% and 99.8%
same,Percentage Weight Change of Individual Mouse,[2]; post infection day 3,90.3% and 94.6% and 88.6% and 94.7% and 93.9% and 99.4% and 99.0%
same,Percentage Weight Change of Individual Mouse,[2]; post infection day 4,85.7% and 86.2% and 83.3% and 92.1% and 90.8% and 97.5% and 96.6%
same,Percentage Weight Change of Individual Mouse,[2]; post infection day 5,82.8% and 85.7% and 81.0% and 90.1% and 89.0% and 90.3% and 91.7%
same,Percentage Weight Change of Individual Mouse,[2]; post infection day 6,80.8% and 82.7% and 78.2% and 85.2% and 88.8% and 87.5% and 87.4%
same,Percentage Weight Change of Individual Mouse,[2]; post infection day 7,80.7% and 76.8% and 73.9% and 82.8% and 84.4% and 85.0% and 83.8%
same,Percentage Weight Change of Individual Mouse,[2]; post infection day 8,79.7% and 72.9% and 71.2% and 83.2% and 82.4% and 86.2% and 80.4%
same,Percentage Weight Change of Individual Mouse,[2]; post infection day 9,81.4% and 69.9% and 71.8% and 80.5% and 78.6% and 90.3% and 78.8%
same,Percentage Weight Change of Individual Mouse,[2]; post infection day 10,80.5% and 69.0% and 73.2% and 82.3% and 77.7% and 93.0% and 77.5%
same,Percentage Weight Change of Individual Mouse,[2]; post infection day 11,82.1% and 67.7% and 75.8% and 88.9% and 74.5% and 99.3% and 77.1%
same,Percentage Weight Change of Individual Mouse,[2]; post infection day 12,80.0% and 64.9% and 80.1% and 88.9% and 74.5% and 101.2% and 78.9%
same,Percentage Weight Change of Individual Mouse,[2]; post infection day 13,76.6% and 63.0% and 82.8% and 97.4% and 72.3% and 80.8%
same,Percentage Weight Change of Individual Mouse,[2]; post infection day 14,75.2% and 61.3% and 86.3% and 102.8% and 74.0% and 82.6%
same,Percentage Weight Change of Individual Mouse,[2]; post infection day 15,83.0% and 58.9% and 90.1% and 76.7% and 84.3%
same,Percentage Weight Change of Individual Mouse,[2]; post infection day 16,90.3% and 58.9% and 94.6% and 78.6% and 89.4%
same,Percentage Weight Change of Individual Mouse,[2]; post infection day 17,93.5%
same,animals survived and regained their original weight,"[2]; i.p. 60 nmole/kg for 7 days, 7 treated animals",Six
same,influenza A virus in the lung homogenate of the surviving mice,"[2]; i.p. 60 nmole/kg for 7 days, assayed in MDCK cells",No influenza A virus was detected
same,Fate of individual mouse (death),"[2]; i.p. 60 nmole/kg for 7 days, treated mouse 4, post infection day 18",died
same,insulin-induced translocation of GLUT4 to the plasma membrane in skeletal muscle,[3],significantly enhances
same,serum level of insulin,[4],not significantly affected
same,serum level of insulin,[4]; listed as des-aspartate-angiotesnin I,no significant difference
